Measurements reported in BindingDB's records for doi:10.1021/acs.jmedchem.1c01473 (Chapman University School of Pharmacy, 2022).

Target: Small conductance calcium-activated potassium channel protein 2 (Rattus norvegicus, UniProt P70604)
Assay: Potentiation of rat KCa2.2a expressed in HEK293 cells assessed as increase in calcium response at -90 mV holding potential measured at 1 to 2 days by patch clamp electrophysiology

Sequence of Small conductance calcium-activated potassium channel protein 2 (P70604 whole entry): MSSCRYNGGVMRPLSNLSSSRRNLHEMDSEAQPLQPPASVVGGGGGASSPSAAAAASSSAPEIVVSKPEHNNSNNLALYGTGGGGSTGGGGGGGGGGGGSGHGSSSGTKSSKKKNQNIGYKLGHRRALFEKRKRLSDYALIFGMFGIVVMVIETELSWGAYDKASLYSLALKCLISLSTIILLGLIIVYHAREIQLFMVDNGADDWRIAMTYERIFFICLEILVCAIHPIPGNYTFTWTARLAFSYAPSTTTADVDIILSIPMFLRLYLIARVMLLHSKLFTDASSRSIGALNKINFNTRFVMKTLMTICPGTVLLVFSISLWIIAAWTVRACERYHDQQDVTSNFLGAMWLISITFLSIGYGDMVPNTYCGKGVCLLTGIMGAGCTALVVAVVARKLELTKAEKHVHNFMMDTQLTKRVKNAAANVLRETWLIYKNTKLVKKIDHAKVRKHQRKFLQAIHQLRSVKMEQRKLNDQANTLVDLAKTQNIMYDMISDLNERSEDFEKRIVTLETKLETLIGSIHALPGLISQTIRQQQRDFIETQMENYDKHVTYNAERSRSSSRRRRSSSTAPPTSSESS

SMILES	EC50 [nM]
Cc1cc(Nc2ccc(F)c(Cl)c2)nc(-n2nc(C)cc2C)n1	110
Cc1cc(Nc2cc(Cl)ccc2F)nc(-n2nc(C)cc2C)n1	91
